Measured values reported in patent US7557110B2, “Pyrazolo[1,5-A] pyrimidine derivatives” (Teijin Pharma Limited, priority 2003, dated 2009).
Where two headings read alike, the source gives them in different places.

What was measured:
CDK-1 = CDK-1 (Homo sapiens, UniProt P06493); experiment: CDK-1 enzyme activity inhibition (33P-ATP filter plate kinase assay)
Method: [General Procedure for Measurement of CDK-1 Enzyme Activity Inhibition]
Compounds were dissolved in DMSO at a concentration of 10 mM and stored in aliquots at −20° C. Compounds in DMSO from these stock aliquots were diluted in DMSO to produce the required range of 30× stock solutions. These stock solutions were then subjected to 1:3 dilutions in order to prepare the required range of 10× stock solutions and 5 μL of each solution was used per 50 μL reaction.
The kinase reaction was conducted in a round-bottomed polypropylene 96-well plate. CDK-1 was diluted to 0.5 U/μL in diluent buffer (50 mM Tris/HCl. pH7.5, 0.1 mM EGTA, 0.1% (v/v) β-mercaptoethanol, 1 mg/mL BSA). 5 μL compound or 30% DMSO was added to each well followed by 25 μL substrate cocktail (final concentration: 10 μM ATP, 50 μM peptide ([sequence]), 0.5 μCi ^33P-γ-ATP in 50 mM Tris-HCl (pH 7.5), 1 mM EGTA, 2 mM DTT, 10 mM MgCl2, 0.01% Brij-35). The reaction was initiated with the addition of 20 μL enzyme solution per well or 20 μL of diluent buffer without enzyme. The plate was shaken for 10 seconds and then left at room temperature for 15 minutes. The reaction was terminated with 50 μL 150 mM phosphoric acid. 90 μL of the reaction mixture was then transferred into a 96-well P81 filter plate (Whatmann) and incubated at room temperature for 5 minutes. The filter plate was then washed 4 times with 200 μL 75 mM phosphoric acid per well on a plate vacuum manifold (Millipore) and dried in an oven for 2-3 hours. Packard MicroScint ‘0’ (30 μL) was then added to each well, the plate was miffed for 30 minutes and subjected to liquid scintillation counting on a Packard TopCount.

CDK-2 = CDK-2 (Homo sapiens, UniProt P24941); experiment: CDK-2 enzyme activity inhibition (33P-ATP filter plate kinase assay); format: biochemical
From the text: [General Procedure for Measurement of CDK-2 Enzyme Activity Inhibition]

MAPKAP-K2 = MAPKAP-K2 (Homo sapiens, UniProt P49137); experiment: MAPKAP-K2 enzyme activity inhibition (33P-ATP filter plate kinase assay); format: biochemical; conditions: MAPKAP-K2 inhibitory activity; assays conducted at typically 1-100 μM; note: key: +: active; ++: more active; +++: very active
MAPKAP-K2, sequence (P49137 whole entry): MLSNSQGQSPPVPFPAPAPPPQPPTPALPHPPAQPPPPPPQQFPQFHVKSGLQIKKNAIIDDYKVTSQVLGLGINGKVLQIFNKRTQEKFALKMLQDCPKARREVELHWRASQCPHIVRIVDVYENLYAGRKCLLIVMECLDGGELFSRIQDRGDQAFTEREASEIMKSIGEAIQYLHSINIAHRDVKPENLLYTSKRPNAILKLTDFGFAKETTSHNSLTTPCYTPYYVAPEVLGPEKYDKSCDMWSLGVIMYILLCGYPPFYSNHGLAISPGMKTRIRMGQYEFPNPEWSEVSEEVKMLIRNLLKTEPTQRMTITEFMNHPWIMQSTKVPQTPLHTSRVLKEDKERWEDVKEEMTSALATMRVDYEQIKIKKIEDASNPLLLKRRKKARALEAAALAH

[1] = read-out: CDK-2 inhibition IC50

CDK-1, sequence (P06493 whole entry, species assumed): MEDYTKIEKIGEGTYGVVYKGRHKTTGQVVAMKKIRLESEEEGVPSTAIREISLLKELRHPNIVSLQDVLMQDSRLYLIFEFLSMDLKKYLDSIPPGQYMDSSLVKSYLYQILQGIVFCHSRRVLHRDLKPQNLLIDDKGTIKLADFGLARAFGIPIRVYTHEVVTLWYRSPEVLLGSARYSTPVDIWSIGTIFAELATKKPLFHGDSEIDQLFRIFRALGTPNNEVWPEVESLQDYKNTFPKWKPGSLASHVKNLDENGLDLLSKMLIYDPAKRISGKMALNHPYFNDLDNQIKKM
CDK-1, sequence (P14635 whole entry partner, species assumed): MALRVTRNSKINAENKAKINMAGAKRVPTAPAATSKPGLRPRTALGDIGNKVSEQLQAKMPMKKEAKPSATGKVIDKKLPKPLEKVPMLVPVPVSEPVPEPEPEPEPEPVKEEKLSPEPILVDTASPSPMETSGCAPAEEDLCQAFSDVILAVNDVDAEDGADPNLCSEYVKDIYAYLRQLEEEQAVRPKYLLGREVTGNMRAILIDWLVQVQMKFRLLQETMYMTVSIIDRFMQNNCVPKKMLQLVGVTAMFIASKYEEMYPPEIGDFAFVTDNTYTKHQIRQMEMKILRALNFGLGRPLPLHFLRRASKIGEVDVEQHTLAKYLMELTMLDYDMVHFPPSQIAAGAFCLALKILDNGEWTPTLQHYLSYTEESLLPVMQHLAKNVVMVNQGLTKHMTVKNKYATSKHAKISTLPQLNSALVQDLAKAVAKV

IC50 (CDK-1)	IC50 (CDK-2)	activity (efficacy against MAPKAP-K2) (MAPKAP-K2)	melting point	IC50 (CDK-2; [1])	SMILES
< 100 µM		+++	131 to 133 °C	< 100 µM	CCOc1ccc(Nc2c(CC)c(N[C@H]3CC[C@H](N)CC3)nc3ccnn23)cc1 [Compound 31]
< 100 µM		+++		< 100 µM	CCOc1ccc(Nc2c(C)c(N[C@H]3CC[C@H](N)CC3)nc3ccnn23)cc1 [Compound 32]
< 100 µM		+++	147 to 149 °C		CCc1c(N[C@H]2CC[C@H](N)CC2)nc2ccnn2c1Nc1ccc(Oc2ccccc2)cc1 [Compound 33]
< 100 µM		+++	120 to 122 °C	< 100 µM	CCc1c(N[C@H]2CC[C@H](N)CC2)nc2ccnn2c1Nc1ccc(OCc2ccccc2)cc1 [Compound 35]
< 100 µM		+++	190 to 192 °C		CCc1c(N[C@H]2CC[C@H](N)CC2)nc2ccnn2c1Nc1ccc(SC)cc1 [Compound 36]

The remaining lines, values behind:

SMILES	IC50 (CDK-1)	IC50 (CDK-2)	activity (efficacy against MAPKAP-K2) (MAPKAP-K2)	melting point	IC50 (CDK-2; [1])
N[C@H]1CC[C@H](Nc2cc(Nc3ccc(F)c(Cl)c3)n3ncc(Br)c3n2)CC1 [Compound 2]	< 100 µM	< 100 µM	++		
CCOC(=O)c1cnn2c(Nc3ccc(F)c(Cl)c3)cc(N[C@H]3CC[C@H](N)CC3)nc12 [Compound 9]	< 100 µM			221 to 223 °C	
Cc1c(N[C@H]2CC[C@H](N)CC2)nc2ccnn2c1Nc1ccc(F)c(Cl)c1 [Compound 10]	< 100 µM	< 100 µM	+++		
CCCc1c(N[C@H]2CC[C@H](N)CC2)nc2ccnn2c1Nc1ccc(F)c(Cl)c1 [Compound 11]	< 100 µM	< 100 µM	+++		
NC1CCC(Nc2nc3ccnn3c(Nc3ccc(F)c(Cl)c3)c2-c2ccccc2)CC1 (stereo not shown) [Compound 12]	< 100 µM	< 100 µM	+++		
Cc1c(N[C@H]2CC[C@H](N)CC2)nc2ccnn2c1Nc1ccccc1Cl [Compound 15]	< 100 µM	< 100 µM	+++		
CCc1c(N[C@H]2CC[C@H](N)CC2)nc2ccnn2c1Nc1ccccc1Cl [Compound 16]	< 100 µM	< 100 µM	+++		
C=CCc1c(N[C@H]2CC[C@H](N)CC2)nc2ccnn2c1Nc1ccccc1Cl [Compound 17]	< 100 µM		+++	153 to 155 °C	
C=CCc1c(N[C@H]2CC[C@H](N)CC2)nc2ccnn2c1Nc1ccc(F)c(Cl)c1 [Compound 19]	< 100 µM		+++	176 to 178 °C	
CCc1c(N[C@H]2CC[C@H](N)CC2)nc2ccnn2c1Nc1ccc(F)c(Cl)c1 [Compound 23]	< 100 µM	< 100 µM	+++		
CCc1c(N[C@H]2CC[C@H](N)CC2)nc2ccnn2c1Nc1ccc(OC)cc1 [Compound 28]	< 100 µM		+++		< 100 µM
CCc1c(N[C@H]2CC[C@H](N)CC2)nc2ccnn2c1Nc1ccccc1C [Compound 29]	< 100 µM		+++	176 to 178 °C	
